These results are taken from PubChem BioAssay AID540258 (Broad Institute, 2011).

Structures are written as SMILES. Active and inactive are the calls of the source.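 How the source made its calls: active means fitted curve reaching 40% activation at or below the top valid dose tested; inconclusive means flat curve at 30 to 70% activation, or poor fit; inactive means the rest.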

In one test the test system is SK-MEL-5 TRPM1 promoter luciferase reporter, 24 h. As to the kind of experiment: activation of TRPM1 promoter luciferase in melanoma cells – SK-MEL-5 cells, cherry-pick samples, dose response (AID 540258).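 On AC40: potency for activators that raise TRPM1 promoter luciferase signal.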
Details: not given
On to `Cc1ccc(NCC(=O)c2ccc(C)cc2)cc1`, for which the AC40 is 9.65 µM. Take `CC(NC(=O)c1cc(COc2ccccc2)on1)c1nccs1` (stereo unspecified): the AC40 was 0.721 µM. Still for that read-out and setting: next, `CCCCn1cnc2sc(-c3ccccc3)cc2c1=O`: 0.812 µM. Same read-out and setting: the figure for `O=S(=O)(c1ccccc1)n1ccc(-c2cnc(-c3ccccc3)s2)n1` is 7.87 µM; for `COc1ccc2cc(C(N)=O)c(=Nc3ccccc3)oc2c1` it is 4.54 µM; for `CN(C(=O)c1cc2sccc2n1C)C1CCCCC1` it is > 35 µM (inactive). The same measure, in the same setting: next, `O=C(N/N=C/c1ccsc1)c1ccc2c(c1)OCO2`: 3.33 µM; `O=C1c2ccccc2/C(=C\C#Cc2ccccn2)N1c1ccccc1`: 3.93 µM; `COc1ccc(C(=O)NCCn2ccc3ccccc32)cc1`: 1.66 µM. Turning to `Clc1ccc(SCc2cn3ccccc3n2)cc1`, the AC40 is 2.69 µM.

With `O=C(NC1=NCCS1)c1ccc(Cl)s1`, the AC40 is 2.64 µM. Take `CCCc1ccc(OCc2nc(-c3ccc(NC(=O)c4cccs4)cc3)no2)cc1`: the AC40 was 14.2 µM. For `O=C(c1cnn2ccccc12)N1CCc2ccccc21`, the AC40 is 1.28 µM. Take `CC/C(=N\NC(=O)c1csc(C)c1C)c1cccs1`: the AC40 is 0.733 µM. Take `CCC(=O)Nc1ccc(-c2ccc(N3CCC(C)CC3)nn2)cc1`: the AC40 was 4.63 µM.

In the case of `Cc1cc(CNC(=O)c2cc(COc3ccc(F)c(F)c3)on2)nn1C`, the AC40 was 3.37 µM. On the same count and under the same terms, next, `COc1ccc(-c2nnc(SCc3ccccc3)n2N)cc1`: 5.97 µM; `Cn1c(NC(=O)CCC2CCCCC2)cc(=O)n(C)c1=O`: 1.49 µM; `Clc1ccc(N/N=C/c2cccnc2)cc1`: 9.36 µM. Same read-out and setting: the figure for `Cc1ccc(Nc2ncnc3ccccc23)cc1` is 2.23 µM; for `CCS(=O)(=O)N1Cc2ccccc2CC1C(=O)NCc1cccc(OC)c1` (stereo unspecified) it is > 35 µM (inactive); for `Cc1cccc(OC(=O)c2sc3ncn(C)c(=O)c3c2C)c1` it is 6.16 µM. For `c1ccc(C2=NN(c3ccccc3)CC2)cc1`, the AC40 was 1.69 µM.

As for `COc1ccc2nc3ccccc3nc2c1`, the AC40 is 4.11 µM. Still for that read-out and setting: the figure for `FC(F)(F)c1ccnc(Oc2ccc(C3=NCCS3)cc2)c1` is 0.654 µM; for `O=C(O)c1ccc(-c2nc(-c3ccc(Cl)cc3)cs2)cc1` it is 0.309 µM; for `COc1ccc2cc(-c3csc(-c4cccnc4)n3)ccc2c1` it is 2.09 µM. `Cc1nc(SCc2ccccc2)nc2c1CCC2`: the AC40 was 2.58 µM.

With `C/C(=N\OC(=O)Nc1ccccc1)c1ccc(C)cc1`, the AC40 is 3.45 µM. In the case of `Cc1ccc2c(CN3CCC(C)CC3)cc(=O)oc2c1C`, the AC40 is 8.33 µM. In the case of `O=c1nc2sc3ccccc3n2c(=O)n1-c1ccc(Cl)cc1`, the AC40 is 3.48 µM. As for `COC(=O)c1ccc(N2CCN(c3ccccc3)CC2)nc1`, the AC40 is 3.85 µM. `O=C(Nc1cccc(F)c1)NC1CCCCCCC1`: the AC40 was 6.52 µM. In the case of `Nc1ccccc1N=Nc1ccccc1N`, the AC40 was 27 µM. Regarding `COc1ccc(C(=O)c2ccc(CC#N)s2)cc1`, the AC40 is 7.07 µM. For the compound `Nc1ccc(O)c2c(=O)cc(-c3ccccc3Cl)oc12`, the AC40 was 1.13 µM. On the same count and under the same terms, next, `O=C(c1cc(COc2ccc(F)cc2Cl)on1)N1CCCCCC1`: 1.67 µM; `CCC(=O)Nc1sc(C(=O)Nc2ccccc2F)c(C)c1C(=O)OC`: 0.568 µM; `COc1ccc2cc(-c3nc4ccccc4n3C)c(=O)oc2c1`: 1.92 µM. Turning to `COc1ccc2[nH]c(-c3ccccc3)cc2c1`, the AC40 was 0.977 µM. Consider `ClCCn1cnc2c(SCc3ccccc3)ncnc21`, for which the AC40 is 3.64 µM.

On to `COc1ccc(/C=C2\OC(=O)c3c(OC)cccc32)cc1OC`, for which the AC40 was 0.998 µM. As for `CCSc1nnc(NC(=O)NC2CCCCC2)s1`, the AC40 was > 35 µM (inactive). Turning to `O=C(NC1CCCC1)c1cc(-c2ccc(Cl)cc2Cl)on1`, the AC40 is 0.393 µM. For `COc1ccc(NC(=O)CN(C)C(=O)CNC(=O)c2sc3ccccc3c2Cl)cc1`, the AC40 was 7.78 µM. On to `CCC(=O)c1ccc(OCc2ccccc2)c(OC)c1`, for which the AC40 was 2.57 µM. On the same count and under the same terms, the figure for `CCCCc1ccc(Nc2ncnc3nc[nH]c23)cc1` is 3.37 µM. `N/C(=N\OC(=O)C12CC3CC(CC(C3)C1)C2)c1ccccn1`: the AC40 was 8.23 µM. As to `CC1(C)CNC(=O)c2sc(NC(=O)c3ccccc3)nc2C1`, the AC40 was 21.9 µM.

Take `Cn1cccc1C(=O)N/N=C/c1c(Cl)cccc1Cl`: the AC40 was 1.47 µM.

Regarding `O=C(Nc1ccc2c(c1)CCC2)c1c(F)cccc1Cl`, the AC40 was 1.84 µM.

Test system in a further test: not listed separately
Described as above. As to conditions: SK-MEL-5 TRPM1 promoter luciferase reporter, 24 h; at 11 µM (top of the series); 100% = twice the neutral-control signal.
With `Cc1ccn2cc(C(=O)Nc3nnc(C)s3)nc2c1`, the activation was 28.3% (inactive).

Still in this test, the particulars now being: SK-MEL-5 TRPM1 promoter luciferase reporter, 24 h; at 35 µM (top of the series); 100% = twice the neutral-control signal.
Turning to `Cc1nc2ccccn2c1C(=O)N/N=C/c1ccc2c(c1)OCO2`, the activation was 34.3% (inactive). Regarding `CC(C)C(=O)Nc1cccc(C(=O)Nc2nnc(C(C)C)s2)c1`, the activation is 16.6% (inactive). The same measure, in the same setting: next, `COC(=O)C(C)N1C(=O)S/C(=C/c2cc(C)n(C(C)C)c2C)C1=O` (stereo unspecified): -32% (inactive); `CSCC[C@H](NC(=O)[C@@H]1Cc2ccccc2CN1)C(=O)NC[C@H]1CC[C@H](C(=O)O)CC1`: -11.7% (inactive). The same measure, in the same setting: next, `Nc1ncccc1OCc1ccc(Br)cc1`: -6.84% (inactive).

Consider `O=C(Nc1cccc2[nH]ncc12)c1ccc(F)cc1`, for which the activation is 28.3% (inactive).

On to `O=C(N/N=C/c1ccc(OC(=O)c2ccccc2Cl)cc1)c1ccccn1`, for which the activation was 6.04% (inactive). Regarding `CCc1nnc(NS(=O)(=O)c2ccc(NC(=O)c3cccc(Cl)c3)cc2)s1`, the activation was -14.9% (inactive). Same read-out and setting: the figure for `Cc1ccn2cc(-c3cccc(NS(C)(=O)=O)c3)nc2c1` is 32.6% (inactive); for `Cc1ccc(Nc2nc(CSc3n[nH]c(N)n3)cs2)cc1` it is -11.9% (inactive).

Take `CCN(CC)C(=O)Oc1ccc2c(=O)c(-c3ccc(OC)cc3)coc2c1`: the activation was -22.5% (inactive).

Regarding `O=C(CNc1ccccc1OC(F)F)N1CCc2ccccc21`, the activation was 31.9% (inactive). In the case of `CC(=O)c1ccc(NC(=O)c2noc3c2CCCCC3)cc1`, the activation is -0.504% (inactive). In the case of `Cc1nnc2sc(-c3ccc(N(C)C)cc3)nn2c1=O`, the activation was -5.15% (inactive). For `COc1ccc(C(=O)Nc2cc(OC)nc(OC)n2)cc1`, the activation was 6.12% (inactive).

`Cc1ccc(N=Nc2ccc(O)cc2)c(Br)c1`: the activation was -1.83% (inactive). For the compound `Cc1cccc(C(=O)Nc2sc3c(c2C#N)CCCCC3)c1`, the activation is 3.85% (inactive). Take `CCn1cnc2c(Nc3cccc(Cl)c3)nc(C#N)nc21`: the activation was 14.6% (inactive).

On to `CC(C)(C)c1csc(NC2=NS(=O)(=O)c3ccccc32)n1`, for which the activation is 7.7% (inactive). For `COc1cccc(CNc2nc3ccccc3n2C)c1O`, the activation was -9.75% (inactive). As to `Cc1ccc(/C=N/c2sc3c(c2C#N)CCC3)s1`, the activation was 3.01% (inactive). On to `O=C(CNC(=O)c1cccs1)c1ccc(Br)cc1`, for which the activation was 1.98% (inactive). Regarding `COc1ccc(/C=C/c2ccc3c(Br)ccc(O)c3n2)cc1`, the activation is 25.4% (inactive).

Regarding `CN1CCc2c(sc(NC(=O)c3ccc4ccccc4c3)c2C(N)=O)C1`, the activation was -68.3% (inactive).

For the compound `Cc1cc(C)n(-c2nnc(NC(C)(C)C)nn2)n1`, the activation is 31.6% (inactive). The same measure, in the same setting: the figure for `CCCc1ccc(-c2cc(C(=O)NCCc3ccc(S(N)(=O)=O)cc3)c3ccccc3n2)cc1` is 26.4% (inactive). The same measure, in the same setting: next, `Cc1c(C(=O)Nc2ccccc2F)cnn1-c1ccccc1`: 27.5% (inactive); `COc1ccc(NC2=Nc3ccccc3CC2)cc1`: 2.84% (inactive); `O=C(Nc1ccccc1)C(=O)Nc1ccc2c(c1)N(C(=O)C1CC1)CCC2`: -36.8% (inactive). Regarding `c1ccc(-c2ccc(-c3cnc4n3CCCCC4)cc2)cc1`, the activation is 30.4% (inactive). On the same count and under the same terms, the figure for `CCN(CC)c1ccc(C(=O)NNC(=O)c2cccn2C)cc1` is 25.3% (inactive). Still for that read-out and setting: next, `C/C(=N\OC(=O)c1cccc(C(F)(F)F)c1)c1sc(-c2ccccc2)nc1C`: 14.6% (inactive). As for `COC(=O)Cn1c(=NC(=O)c2ccc(Cl)s2)sc2cc(C)ccc21`, the activation was 23.7% (inactive). For `Fc1ccccc1Nc1nc2ccccc2o1`, the activation was -20% (inactive). Take `Cc1ccccc1C(=O)O/N=C(\N)Cc1cccs1`: the activation is 23.1% (inactive).

Regarding `Cc1ccc(SCc2cn3c(C)csc3n2)cc1`, the activation is -37.7% (inactive). Turning to `CC1CCC(NC(=O)c2cc3c(s2)CCCC3)CC1` (stereo unspecified), the activation is 33.2% (inactive). Consider `COc1cccc(CN(C)C(=O)c2ccc(COc3ccc(Cl)cc3)cc2)c1OC`, for which the activation was 32.6% (inactive).

Turning to `Cc1ccc(NC(=O)CN2CCCC2c2cccn2C)c(Br)c1` (stereo unspecified), the activation was 29% (inactive). On to `Cc1ccc2oc(Nc3nc(C)c(C)c(C)n3)nc2c1`, for which the activation was 34.2% (inactive).

For `CC(C)(C)N1C(=O)c2ccc(C(=O)Nc3nccs3)cc2C1=O`, the activation is 39% (inactive). For `CC(C)(C)C(=O)Nc1nc2cc3c(cc2s1)OCO3`, the activation was -25.8% (inactive). Still for that read-out and setting: next, `Cc1cc(C)n2nc(SCN3C(=O)c4ccccc4C3=O)nc2n1`: -5.27% (inactive). On the same count and under the same terms, the figure for `O=C(Nc1cnc2ccccc2c1)N1CCCCC1` is 8.92% (inactive). As to `O=c1[nH]c(Cc2cccs2)nc2scc(-c3ccc(Cl)cc3)c12`, the activation was 14.1% (inactive). Regarding `COc1ccccc1C(=O)Nc1ccc2c(C)cc(=O)oc2c1`, the activation was 29.6% (inactive). On the same count and under the same terms, next, `CC(=O)Nc1cccc(-c2csc(Nc3ccc(C)cn3)n2)c1`: -25.2% (inactive); `COC(=O)Nc1nnc(-c2ccccc2Cl)s1`: 36% (inactive); `CC(c1ccccc1)c1nnc(NC(=O)Nc2ccccc2F)s1` (stereo unspecified): 38.2% (inactive).
